# Source: ChEMBL document CHEMBL1201862, “PubChem BioAssay data set” (2004)
# Calls of active or inactive are those of the source.
# Assays:
# [1] = target: DNA dC->dU-editing enzyme APOBEC-3A (Homo sapiens, UniProt P31941); assay: Dose Response confirmation of small molecule APOBEC3A DNA Deaminase Inhibitors via a fluorescence-based single-stranded DNA deaminase assay. [Related pubchem assays (depositor defined):AID493011, AID493024]; type: functional
# [2] = target: T1, DNA dC->dU-editing enzyme APOBEC-3G (Homo sapiens, UniProt Q9HC16); type: functional
# T1 sequence (Q9HC16 whole entry): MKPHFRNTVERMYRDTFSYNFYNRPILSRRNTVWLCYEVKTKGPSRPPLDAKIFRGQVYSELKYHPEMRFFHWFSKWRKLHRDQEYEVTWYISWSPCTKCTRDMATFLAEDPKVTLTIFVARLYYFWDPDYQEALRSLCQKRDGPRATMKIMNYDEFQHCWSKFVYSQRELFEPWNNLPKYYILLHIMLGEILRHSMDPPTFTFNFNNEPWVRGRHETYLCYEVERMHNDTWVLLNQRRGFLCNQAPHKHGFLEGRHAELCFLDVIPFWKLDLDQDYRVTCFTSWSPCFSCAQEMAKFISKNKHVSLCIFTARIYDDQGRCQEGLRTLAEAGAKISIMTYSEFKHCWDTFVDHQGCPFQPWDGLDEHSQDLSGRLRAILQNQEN
# [3] = A cytotoxicity screen of small molecule inhibitors of the PhoP region in Salmonella typhi identified in the primary screen. [Related pubchem assays: 1850, 1864, 1985 ]; type: functional
# [4] = Luminescence Cell-Based Dose Confirmation HTS to Identify Inhibitors of Platelet Dense Granule Release. [Related pubchem assays: 1663 (Primary HTS), 1678 (Summary of Project)]; type: functional
# [5] = target: Luciferin 4-monooxygenase (Photinus pyralis, UniProt P08659); assay: firefly luciferase enzyme inhibitors, dose response, biochemical, luminescence (AID 1891)
# Luciferin 4-monooxygenase, sequence (P08659 whole entry): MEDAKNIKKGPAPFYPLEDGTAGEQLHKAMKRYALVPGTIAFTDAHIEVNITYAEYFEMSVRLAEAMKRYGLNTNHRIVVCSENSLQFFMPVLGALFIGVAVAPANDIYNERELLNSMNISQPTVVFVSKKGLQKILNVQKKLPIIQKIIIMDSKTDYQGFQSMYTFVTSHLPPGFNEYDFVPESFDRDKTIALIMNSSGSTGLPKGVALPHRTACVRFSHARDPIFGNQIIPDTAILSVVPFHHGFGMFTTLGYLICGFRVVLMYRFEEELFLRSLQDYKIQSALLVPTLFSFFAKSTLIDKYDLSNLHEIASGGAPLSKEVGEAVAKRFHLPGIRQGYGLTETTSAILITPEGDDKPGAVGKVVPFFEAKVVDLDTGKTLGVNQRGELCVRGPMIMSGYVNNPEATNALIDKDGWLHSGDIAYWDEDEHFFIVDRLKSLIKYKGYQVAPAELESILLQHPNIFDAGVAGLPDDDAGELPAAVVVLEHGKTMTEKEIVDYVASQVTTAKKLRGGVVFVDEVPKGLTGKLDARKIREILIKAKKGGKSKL
# [6] = target: T2, Cytochrome P450 2C9 (Homo sapiens, UniProt P11712)
# T2 sequence (P11712 whole entry): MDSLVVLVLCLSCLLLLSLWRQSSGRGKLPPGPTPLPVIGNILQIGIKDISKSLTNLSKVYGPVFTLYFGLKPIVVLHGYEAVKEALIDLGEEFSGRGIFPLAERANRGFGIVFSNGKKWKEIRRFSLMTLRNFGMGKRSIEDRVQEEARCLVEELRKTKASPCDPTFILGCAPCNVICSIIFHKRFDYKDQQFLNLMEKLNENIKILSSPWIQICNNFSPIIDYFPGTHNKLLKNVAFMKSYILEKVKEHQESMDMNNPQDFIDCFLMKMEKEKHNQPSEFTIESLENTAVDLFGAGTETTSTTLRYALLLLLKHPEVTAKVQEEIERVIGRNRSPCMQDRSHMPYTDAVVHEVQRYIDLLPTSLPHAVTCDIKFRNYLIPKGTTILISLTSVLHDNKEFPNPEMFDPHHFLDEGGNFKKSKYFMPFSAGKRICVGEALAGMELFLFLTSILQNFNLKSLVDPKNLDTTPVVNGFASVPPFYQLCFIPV
# [7] = target: Cytochrome P450 3A4 (Homo sapiens, UniProt P08684);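 note: CYP3A4 tested as one member of a cytochrome P450 panel screen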
# Cytochrome P450 3A4, sequence (P08684 whole entry): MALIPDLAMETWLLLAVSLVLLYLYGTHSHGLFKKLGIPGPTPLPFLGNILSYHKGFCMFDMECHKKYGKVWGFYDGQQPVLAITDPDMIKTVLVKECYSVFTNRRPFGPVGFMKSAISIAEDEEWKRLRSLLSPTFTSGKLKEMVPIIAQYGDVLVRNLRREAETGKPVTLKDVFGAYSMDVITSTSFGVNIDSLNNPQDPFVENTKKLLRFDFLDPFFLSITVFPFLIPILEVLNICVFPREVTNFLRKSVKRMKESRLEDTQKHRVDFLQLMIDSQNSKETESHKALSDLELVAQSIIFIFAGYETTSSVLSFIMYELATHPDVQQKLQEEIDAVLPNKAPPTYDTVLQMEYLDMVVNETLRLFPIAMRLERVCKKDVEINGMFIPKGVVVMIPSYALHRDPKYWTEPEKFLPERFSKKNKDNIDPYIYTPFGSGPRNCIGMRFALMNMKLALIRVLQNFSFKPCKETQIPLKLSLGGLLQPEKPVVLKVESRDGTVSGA
# [8] = target: T3, Cytochrome P450 1A2 (Homo sapiens, UniProt P05177);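 note: PubChem cytochrome P450 panel assay, CYP1A2 panel member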
# T3 sequence (P05177 whole entry): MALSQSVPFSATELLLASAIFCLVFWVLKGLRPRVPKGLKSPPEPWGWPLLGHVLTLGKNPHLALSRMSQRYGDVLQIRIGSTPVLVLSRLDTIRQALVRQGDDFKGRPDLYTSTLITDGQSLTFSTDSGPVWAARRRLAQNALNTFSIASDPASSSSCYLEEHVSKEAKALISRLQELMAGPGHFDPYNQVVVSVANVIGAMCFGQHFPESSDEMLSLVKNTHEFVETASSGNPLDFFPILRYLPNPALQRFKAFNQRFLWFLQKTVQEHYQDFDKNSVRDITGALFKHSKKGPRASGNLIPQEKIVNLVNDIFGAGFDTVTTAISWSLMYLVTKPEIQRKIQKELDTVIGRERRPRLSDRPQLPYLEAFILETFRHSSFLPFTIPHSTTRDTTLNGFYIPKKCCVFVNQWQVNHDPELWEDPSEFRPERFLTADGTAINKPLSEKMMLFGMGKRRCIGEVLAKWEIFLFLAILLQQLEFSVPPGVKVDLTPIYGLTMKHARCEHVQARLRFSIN
# [9] = target: Glyceraldehyde-3-phosphate dehydrogenase (Homo sapiens, UniProt P04406)
# Glyceraldehyde-3-phosphate dehydrogenase, sequence (P04406 whole entry): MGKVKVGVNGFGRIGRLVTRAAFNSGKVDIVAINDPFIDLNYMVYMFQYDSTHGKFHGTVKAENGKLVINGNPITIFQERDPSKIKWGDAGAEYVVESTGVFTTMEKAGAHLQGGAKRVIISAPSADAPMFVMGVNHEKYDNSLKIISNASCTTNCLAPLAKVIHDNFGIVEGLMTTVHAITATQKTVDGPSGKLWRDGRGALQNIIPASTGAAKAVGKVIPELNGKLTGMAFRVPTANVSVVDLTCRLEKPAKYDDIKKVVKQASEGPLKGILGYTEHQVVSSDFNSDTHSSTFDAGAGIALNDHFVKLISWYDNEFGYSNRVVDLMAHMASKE
# [10] = target: Induced myeloid leukemia cell differentiation protein Mcl-1 (Homo sapiens, UniProt Q07820); type: functional
# Induced myeloid leukemia cell differentiation protein Mcl-1, sequence (Q07820 whole entry): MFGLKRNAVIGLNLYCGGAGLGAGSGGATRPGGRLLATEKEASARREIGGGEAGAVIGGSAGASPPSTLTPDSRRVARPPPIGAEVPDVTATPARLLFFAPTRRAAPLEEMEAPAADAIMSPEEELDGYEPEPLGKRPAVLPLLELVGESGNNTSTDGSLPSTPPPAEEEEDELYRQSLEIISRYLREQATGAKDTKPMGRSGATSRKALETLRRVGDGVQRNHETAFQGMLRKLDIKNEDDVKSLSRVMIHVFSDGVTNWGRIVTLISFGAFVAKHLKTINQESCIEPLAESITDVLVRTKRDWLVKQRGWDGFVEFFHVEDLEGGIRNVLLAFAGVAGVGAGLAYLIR
# [11] = system: HEK293; assay: inhibitors of LMP1-driven NF-kB reporter, dose response, cell-based, HEK293, luciferase, cherry-pick (AID 588343); type: functional; settings: Homo sapiens
# [12] = target: Cytochrome P450 2C19 (Homo sapiens, UniProt P33261); assay: Cytochrome panel assay with activity outcomes. Panel member name: p450-cyp2c19 Compounds with AC50 equal or less than 10 uM are considered active; type: functional; settings: read-out: AC50
# Cytochrome P450 2C19, sequence (P33261 whole entry): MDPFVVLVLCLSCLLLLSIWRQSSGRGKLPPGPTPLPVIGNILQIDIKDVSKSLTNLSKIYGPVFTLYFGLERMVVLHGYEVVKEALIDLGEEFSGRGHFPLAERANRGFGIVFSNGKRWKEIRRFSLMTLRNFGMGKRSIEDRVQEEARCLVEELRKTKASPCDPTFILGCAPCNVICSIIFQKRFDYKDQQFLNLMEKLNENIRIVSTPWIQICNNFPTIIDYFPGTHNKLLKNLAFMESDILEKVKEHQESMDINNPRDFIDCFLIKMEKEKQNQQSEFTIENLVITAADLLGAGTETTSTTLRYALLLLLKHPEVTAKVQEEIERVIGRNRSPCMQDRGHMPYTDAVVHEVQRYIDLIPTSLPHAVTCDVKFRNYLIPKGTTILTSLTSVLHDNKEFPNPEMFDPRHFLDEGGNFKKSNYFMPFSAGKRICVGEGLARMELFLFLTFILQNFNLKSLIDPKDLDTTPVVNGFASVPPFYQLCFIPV
# [13] = target: T2, Cytochrome P450 2C9; remark: listed apart in the source
# [14] = system: H4; assay: Luminescence Cell-Based Dose Response HTS to Identify Activators of 5'UTR Stem-Loop Driven Prion Protein mRNA Translation in H4 Neuroglioblastoma Cells. [Related pubchem assays: 1829 (Project Summary), 1814 (Primary HTS)]; type: functional; settings: Homo sapiens
# [15] = Luminescence Cell-Based Dose Confirmation HTS to Identify Activators of 5'UTR Stem-Loop Driven Alpha-Synuclein mRNA Translation in H4 Neuroglioblastoma Cells. [Related pubchem assays: 1829 (Project Summary), 1814 (Primary HTS)]; type: functional
# [16] = Luminescence Cell-Based Dose Response HTS to Identify Activators of Luciferase Translation or Activity in H4 […] Cells. [Related pubchem assays: 1829 (Project Summary), 1814 (Primary HTS)]; type: functional
# [17] = target: T4, Heat shock factor protein 1 (Mus musculus, UniProt P38532); assay: inhibition of MG132-induced HSE-luciferase signal, confirmation, cell-based, NIH3T3, luminescence, dose retest (AID 2382); type: functional;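 note: NIH3T3 fibroblasts with HSF1-driven luciferase reporter stressed by proteasome inhibitor MG132; luminescence from HSF1-driven luciferase expression after 8 hours of MG132 stress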
# T4 sequence (P38532 whole entry): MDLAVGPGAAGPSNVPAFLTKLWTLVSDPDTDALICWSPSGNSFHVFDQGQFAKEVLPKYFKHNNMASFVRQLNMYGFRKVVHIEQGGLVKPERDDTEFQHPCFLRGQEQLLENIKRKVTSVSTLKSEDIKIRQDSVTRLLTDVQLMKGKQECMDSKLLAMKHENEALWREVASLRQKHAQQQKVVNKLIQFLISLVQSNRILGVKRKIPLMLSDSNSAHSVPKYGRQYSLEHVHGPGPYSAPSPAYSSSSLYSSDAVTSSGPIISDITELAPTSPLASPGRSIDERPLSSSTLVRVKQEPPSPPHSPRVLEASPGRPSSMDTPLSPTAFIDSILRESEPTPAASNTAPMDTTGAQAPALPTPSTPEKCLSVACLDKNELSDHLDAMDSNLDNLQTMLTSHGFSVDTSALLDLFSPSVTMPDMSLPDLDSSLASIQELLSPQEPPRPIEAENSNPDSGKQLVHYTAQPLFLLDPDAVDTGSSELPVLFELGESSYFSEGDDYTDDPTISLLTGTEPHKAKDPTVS
# [18] = target: Prothrombin (Homo sapiens, UniProt P00734); assay: Thrombin 1536 HTS Dose Response Confirmation. [Related pubchem assays: 1046 (Thrombin 1536 HTS; hits were confirmed in this assay)]; type: functional
# [19] = LGR2 antagonists, dose response, cell-based, HEK293, CRE-luciferase reporter, cherry pick, set 2 (AID 743343); type: functional;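 note: transfected cells were stimulated with diluted bursicon conditioned medium after compound addition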
# [20] = HEK293 cell cytotoxicity, dose response, cytotoxicity control, plate reader, cherry-picked samples (AID 743446); type: functional, cell-based
# [21] = HepG2 cell cytotoxicity, dose response, cytotoxicity control, plate reader, cherry-pick, antagonist series (AID 743416); type: functional, cell-based
# [22] = MC4R antagonists, dose response, counter-screen for LGR2 antagonist project, cell-based, plate reader, cherry pick (AID 743444); type: functional;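 note: transfected HEK 293 cells stimulated with alpha-MSH peptide; potency of inhibitors of the alpha-MSH evoked signal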
# [23] = target: Paired box protein Pax-8 (Homo sapiens, UniProt Q06710); assay: inhibitors of PAX8-driven TPO luciferase reporter, dose response, RMG-I cells, cherry-pick (AID 687027); type: functional, cell-based;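 note: luciferase reporter driven by Pax8 target thyroperoxidase promoter measured by SteadyGlo luminescence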
# Paired box protein Pax-8, sequence (Q06710 whole entry): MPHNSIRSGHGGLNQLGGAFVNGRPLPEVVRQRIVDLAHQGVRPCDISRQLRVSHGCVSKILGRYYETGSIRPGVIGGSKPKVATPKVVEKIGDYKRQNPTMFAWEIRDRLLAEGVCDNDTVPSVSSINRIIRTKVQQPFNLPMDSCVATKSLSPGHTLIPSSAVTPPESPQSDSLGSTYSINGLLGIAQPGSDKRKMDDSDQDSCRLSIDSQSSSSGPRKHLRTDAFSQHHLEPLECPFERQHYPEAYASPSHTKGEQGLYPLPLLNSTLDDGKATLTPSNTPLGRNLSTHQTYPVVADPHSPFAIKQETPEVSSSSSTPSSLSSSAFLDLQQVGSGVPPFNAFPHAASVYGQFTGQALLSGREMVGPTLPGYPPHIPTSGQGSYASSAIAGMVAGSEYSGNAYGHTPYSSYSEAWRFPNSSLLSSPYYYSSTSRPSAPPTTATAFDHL
# [24] = cytotoxicity in OVCAR8 ovarian cancer cells, dose response, PAX8 project, cell-based, plate reader, dry powder samples (AID 743197); type: functional; settings: OVCAR-8
# [25] = target: T1, DNA dC->dU-editing enzyme APOBEC-3G; assay: Dose Response confirmation of small molecule APOBEC3G DNA Deaminase Inhibitors via a fluorescence-based single-stranded DNA deaminase assay. [Related pubchem assays (depositor defined):AID493012, AID493028]; type: functional
# DNA dC->dU-editing enzyme APOBEC-3A, sequence (P31941 whole entry): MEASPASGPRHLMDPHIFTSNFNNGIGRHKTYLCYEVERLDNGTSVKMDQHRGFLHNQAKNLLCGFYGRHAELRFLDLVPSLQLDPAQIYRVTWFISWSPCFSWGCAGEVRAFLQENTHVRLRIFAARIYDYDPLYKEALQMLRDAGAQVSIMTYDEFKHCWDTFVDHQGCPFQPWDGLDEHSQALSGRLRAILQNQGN
compound,measurement,setting,value
CCN1C(NCCOC)=N[C@@H](c2cccs2)C(C(=O)OC)=C1C,IC50,[1],4.37 µM (active)
same,IC50,[2],8.01 µM (active)
CC(=O)c1c(C)[nH]c(C(=O)CSc2nnc(-c3ccc(Cl)cc3)n2CC2CCCO2)c1C (stereo not drawn),EC50,[3],> 50 µM (active)
same,EC50,[4],> 112 µM (not active)
same,EC50,[5],> 112 µM (not active)
COc1ccccc1OC(C)C(=O)N1CCN(Cc2ccc3c(c2)OCO3)CC1 (stereo not drawn),IC50,[1],7.43 µM (active)
same,IC50,[2],8.33 µM (active)
CCCCC(=O)NC(=S)Nc1cccc(NC(=O)CC)c1,AC50,[6],inconclusive
same,AC50,[7],20 µM (inconclusive)
same,AC50,[8],15.8 µM (inconclusive)
C=CCc1cccc2cc(C(=O)Nc3cccc(C(=O)O)c3)c(=O)oc12,IC50,[9],> 100 µM (not active)
CCN(c1ccc(NC(=O)COC(=O)/C=C/c2cccs2)cc1)C(C)C,IC50,[10],3.34 µM (active)
O=C(NOCc1ccccc1)c1ccc(Cl)cc1Cl,AC50,[11],3.33 µM (active)
CN1C(=O)NC(c2ccc(O)cc2)C(C(=O)c2cccs2)C1(O)C(F)(F)F (stereo not drawn),EC50,[3],> 50 µM (active)
same,AC50,[7],25.1 µM (inconclusive)
same,AC50,[12],15.8 µM (inconclusive)
same,AC50,[13],39.8 µM (inconclusive)
COc1ccccc1C(=O)NC(=S)N1CCCc2ccccc21,EC50,[14],31.6 µM (active)
same,EC50,[15],29.9 µM (active)
same,EC50,[16],9.63 µM (active)
same,AC50,[6],inconclusive
same,EC50,[17],16.2 µM (active)
O=C1CCCC(O)=C1Sc1ccccc1C(=O)O,IC50,[1],13.3 µM (active)
same,IC50,[2],43.8 µM (active)
O=C(c1ccccc1)n1nnc2ccccc21,IC50,[18],0.431 µM (active)
O=C(Nc1ccccc1)c1cn2ccccc2n1,AC50,[19],6.06 µM (active)
same,AC50,[11],3.47 µM (active)
same,AC50,[20],48.4 µM (active)
same,AC50,[21],> 52 µM (inactive)
same,AC50,[22],6.74 µM (active)
CC(C)c1ccc2oc(=O)cc(CN3CCN(c4ccc(F)cc4)CC3)c2c1,EC50,[3],> 50 µM (active)
CC(C[N+](C)(C)C)OC(=O)C1(c2ccccc2)CCCC1 (stereo not drawn),IC50,[1],2.56 µM (active)
same,IC50,[2],3.58 µM (active)
COc1ccc(CN2[C@H](CO)[C@H]3c4ccccc4NC[C@H]32)cc1,AC50,[23],11.2 µM (active)
same,AC50,[24],> 70 µM (inactive)
CCCCN1CCC(COC(=O)c2cc(Cl)c(N)c3c2OCCO3)CC1,AC50,[6],inconclusive
same,AC50,[7],3.16 µM (inconclusive)
CC(C)Cn1c(S)nnc1-c1ccc(F)cc1,IC50,[25],9.54 µM (active)
